Source: ChEMBL document CHEMBL4616620, “Discovery and SAR of aryl hydroxy pyrimidinones as potent small molecule agonists of the GPCR APJ” (Bioorg Med Chem Lett, 2020)
Values joined by “and” are separate entries in the source; they are usually repeats but may differ in a detail not shown here. Equal values may be shown once.

Assays:
Apelin receptor = molecular target: T1, Apelin receptor (Homo sapiens, UniProt P35414); assay: Agonist activity at human APJ expressed in HEK293 cells assessed as inhibition of forskolin-stimulated cAMP production; type: functional, cell-based
T1 sequence (P35414 whole entry): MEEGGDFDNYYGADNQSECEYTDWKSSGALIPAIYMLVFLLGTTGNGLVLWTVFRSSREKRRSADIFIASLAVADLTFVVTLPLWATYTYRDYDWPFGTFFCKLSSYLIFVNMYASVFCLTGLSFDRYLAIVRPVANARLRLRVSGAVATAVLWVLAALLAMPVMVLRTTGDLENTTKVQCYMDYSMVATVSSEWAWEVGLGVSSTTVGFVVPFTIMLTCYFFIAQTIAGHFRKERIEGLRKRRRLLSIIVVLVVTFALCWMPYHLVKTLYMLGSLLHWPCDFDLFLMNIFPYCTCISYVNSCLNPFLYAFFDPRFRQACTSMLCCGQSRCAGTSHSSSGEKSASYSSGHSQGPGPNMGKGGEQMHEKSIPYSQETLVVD

[1] = molecular target: CYP450 (isoform not stated) (Homo sapiens, UniProt P04798+P05177+P05181+P08684+P10632+P10635+P11509+P11712+P13584+P20813+P20815+P20853+P24462+P24903+P33260+P33261+P51589+P78329+P98187+Q02928+Q08477+Q16678+Q16696+Q5TCH4+Q6VVX0+Q7Z449+Q8TAV3+Q96SQ9+Q9HB55); assay: Inhibition of CYP450 (unknown origin); type: ADME, protein assay
[2] = Permeability of compound at pH 5.5 by PAMPA assay; type: ADME; conditions: read-out: permeability
[3] = Permeability of compound at pH 7.4 by PAMPA assay; type: ADME; conditions: read-out: permeability
[4] = molecular target: T2, Nuclear receptor subfamily 1 group I member 2 (Homo sapiens, UniProt O75469); assay: Agonist activity at PXR (unknown origin)
T2 sequence (O75469 whole entry): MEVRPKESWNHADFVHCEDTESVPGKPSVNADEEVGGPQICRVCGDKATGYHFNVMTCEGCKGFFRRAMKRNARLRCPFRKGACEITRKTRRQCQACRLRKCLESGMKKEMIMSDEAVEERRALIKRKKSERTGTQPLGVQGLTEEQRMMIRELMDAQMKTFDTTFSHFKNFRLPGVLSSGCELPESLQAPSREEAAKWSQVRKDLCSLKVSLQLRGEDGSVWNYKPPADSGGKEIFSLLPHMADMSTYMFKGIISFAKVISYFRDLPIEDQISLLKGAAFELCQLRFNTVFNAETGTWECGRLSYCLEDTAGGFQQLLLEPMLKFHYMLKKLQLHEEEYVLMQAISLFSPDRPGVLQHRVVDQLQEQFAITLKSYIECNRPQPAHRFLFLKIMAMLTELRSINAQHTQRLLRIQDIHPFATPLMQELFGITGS

[5] = molecular target: Voltage-gated inwardly rectifying potassium channel KCNH2 (Homo sapiens, UniProt Q12809); assay: Inhibition of human ERG
[6] = Cmax in mouse at 10 mg/kg, po; type: ADME, organism-based; design: dose 10 mg/kg, route oral; conditions: in vivo
[7] = Tmax in mouse at 10 mg/kg, po; type: ADME, organism-based; conditions: in vivo
[8] = AUC in mouse at 10 mg/kg, po; type: ADME, organism-based; conditions: in vivo
[9] = molecular target: T3, Apelin receptor (Homo sapiens) (UniProt P35414); assay: Agonist activity at human APJ expressed in HEK293 cells assessed as inhibition of forskolin-stimulated cAMP production at 10 uM relative to control; type: functional, cell-based
T3 sequence (whole entry): T1 sequence (P35414 whole entry)

Voltage-gated inwardly rectifying potassium channel KCNH2, sequence (Q12809 whole entry): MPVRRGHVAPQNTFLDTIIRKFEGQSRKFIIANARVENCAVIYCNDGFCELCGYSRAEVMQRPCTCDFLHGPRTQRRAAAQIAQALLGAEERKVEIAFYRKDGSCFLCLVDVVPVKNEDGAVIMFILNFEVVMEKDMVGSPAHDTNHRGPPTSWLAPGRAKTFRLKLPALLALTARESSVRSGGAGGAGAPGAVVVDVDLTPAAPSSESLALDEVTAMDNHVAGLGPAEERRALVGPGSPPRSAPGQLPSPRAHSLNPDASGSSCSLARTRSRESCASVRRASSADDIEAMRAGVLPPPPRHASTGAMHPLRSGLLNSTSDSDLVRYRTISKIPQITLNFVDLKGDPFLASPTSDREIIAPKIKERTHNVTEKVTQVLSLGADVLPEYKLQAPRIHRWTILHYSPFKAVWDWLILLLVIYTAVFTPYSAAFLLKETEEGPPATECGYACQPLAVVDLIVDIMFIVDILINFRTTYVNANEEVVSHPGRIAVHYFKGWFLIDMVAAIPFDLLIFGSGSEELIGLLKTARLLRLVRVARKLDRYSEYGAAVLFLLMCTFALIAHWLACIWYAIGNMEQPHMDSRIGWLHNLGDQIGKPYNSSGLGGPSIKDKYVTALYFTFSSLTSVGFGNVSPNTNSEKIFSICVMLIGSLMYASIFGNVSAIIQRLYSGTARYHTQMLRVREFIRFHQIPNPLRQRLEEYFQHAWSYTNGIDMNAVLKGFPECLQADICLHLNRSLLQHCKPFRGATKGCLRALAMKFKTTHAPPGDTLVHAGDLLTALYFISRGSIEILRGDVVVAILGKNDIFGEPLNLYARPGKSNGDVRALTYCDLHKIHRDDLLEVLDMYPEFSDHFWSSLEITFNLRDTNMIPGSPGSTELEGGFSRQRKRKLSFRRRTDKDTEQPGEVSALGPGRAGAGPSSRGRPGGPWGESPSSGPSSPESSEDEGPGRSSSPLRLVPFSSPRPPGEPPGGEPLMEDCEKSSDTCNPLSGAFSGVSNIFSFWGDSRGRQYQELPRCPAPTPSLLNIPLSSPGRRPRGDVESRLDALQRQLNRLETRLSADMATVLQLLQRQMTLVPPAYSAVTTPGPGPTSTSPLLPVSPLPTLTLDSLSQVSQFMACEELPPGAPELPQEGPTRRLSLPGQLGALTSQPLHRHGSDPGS

Row | Compound | EC50 (Apelin receptor) | also measured
1 | CCCSc1nc(=O)cc(O)n1-c1ccc(OC)cc1 | 680 nM | –
2 | CCCSc1nc(=O)cc(O)n1-c1ccccc1C(F)(F)F | 90 nM | –
3 | C=CCc1c(O)n(-c2ccccc2OC)c(SCCC)nc1=O | 570 nM | –
4 | CCCCc1nc(=O)cc(O)n1-c1c(OC)cccc1OC | 11 nM | –
5 | CCCSc1nc(=O)cc(O)n1-c1cccc(C)c1 | 290 nM | –
6 | CCCSc1nc(=O)cc(O)n1-c1ccccc1CC | 140 nM | –
7 | CCCSc1nc(=O)cc(O)n1-c1ccccc1Cl | 250 nM | –
8 | CCCSc1nc(=O)c(Cc2ccccc2)c(O)n1-c1ccccc1OC | 340 nM | –
9 | CCCCc1nc(=O)cc(O)n1-c1c(C)cccc1OC | 5 nM and 3 nM and 2 nM | IC50 [1]: > 20000 nM; Papp [2]: 1.2 ×10⁻⁶ cm/s; Papp [3]: 1 ×10⁻⁶ cm/s; EC50 [4]: > 14000 nM; IC50 [5]: > 80000 nM; Cmax [6]: 1.68 µM; Tmax [7]: 4 h; AUC [8]: 10.2 µM·h
10 | CCCSc1nc(=O)c(C)c(O)n1-c1ccccc1OC | 1400 nM | –
11 | CCCSc1nc(=O)cc(O)n1-c1ccc(C)cc1 | 260 nM | –
12 | CCCSc1nc(=O)cc(O)n1-c1ccccc1 | 5000 nM | Efficacy [9]: 100%
13 | CCCSc1nc(=O)cc(O)n1-c1ccccc1F | 160 nM | –
14 | CCCSc1nc(=O)c(CC)c(O)n1-c1ccccc1OC | 860 nM | –
15 | CCCSc1nc(=O)cc(O)n1-c1ccccc1Br | 155 nM | –
16 | CCCSc1nc(=O)cc(O)n1-c1cccc(OC)c1 | 940 nM | –
17 | CCCCc1nc(=O)c(Cc2ccc(OC)cc2)c(O)n1-c1c(OC)cccc1OC | 13 nM | –
18 | CCCCc1c(O)n(-c2ccccc2OC)c(SCCC)nc1=O | 1700 nM | –
19 | C=CCn1c(O)cc(=O)nc1SC(C)CC (stereo not given) | 4400 nM | Efficacy [9]: 100%

Further lines, with some results ahead:

Row | EC50 (Apelin receptor) | Compound | also measured
20 | 450 nM | CCCSc1nc(=O)c(C(C)C)c(O)n1-c1ccccc1OC | –
21 | 64 nM and 40 nM and 160 nM | CCCSc1nc(=O)cc(O)n1-c1ccccc1OC | IC50 [1]: > 20000 nM; Papp [2]: 23 ×10⁻⁶ cm/s; Papp [3]: 13.1 ×10⁻⁶ cm/s; EC50 [4]: > 50000 nM; IC50 [5]: > 80000 nM; Cmax [6]: 4.4 µM; Tmax [7]: 4 h; AUC [8]: 29 µM·h
22 | 22 nM and 24 nM and 31 nM | CCCCc1nc(=O)cc(O)n1-c1ccccc1OC | –
23 | 23 nM | COc1ccccc1-n1c(O)cc(=O)nc1SC(C)C | –
24 | 200 nM | CCCCSc1nc(=O)cc(O)n1-c1ccccc1OC | –
25 | 100 nM | CCCSc1nc(=O)cc(O)n1-c1ccccc1OCC | –
26 | 100 nM | CCCSc1nc(=O)cc(O)n1-c1ccccc1C | –
27 | 78 nM | COc1ccccc1-n1c(O)cc(=O)nc1SCC(C)C | –
